What follows are molecules tested against T1, CCR1 (Homo sapiens, UniProt P32246) (assay: chemotaxis assay (THP-1 cells or monocytes migrating to CCR1 chemokine ligands)). Conditions: chemotaxis assay; compared with drawing 40.
T1 construct: host or cells: THP-1 cells or freshly isolated monocytes
T1 sequence (P32246 1-355): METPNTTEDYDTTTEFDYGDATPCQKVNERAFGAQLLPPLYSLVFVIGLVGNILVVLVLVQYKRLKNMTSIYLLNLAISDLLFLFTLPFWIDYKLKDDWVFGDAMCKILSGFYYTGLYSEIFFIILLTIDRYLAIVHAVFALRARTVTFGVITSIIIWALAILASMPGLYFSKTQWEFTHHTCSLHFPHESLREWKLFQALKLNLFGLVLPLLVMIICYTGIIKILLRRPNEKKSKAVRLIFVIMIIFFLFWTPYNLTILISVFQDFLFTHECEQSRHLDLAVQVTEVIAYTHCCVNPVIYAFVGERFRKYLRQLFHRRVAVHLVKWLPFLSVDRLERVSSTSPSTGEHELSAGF
Type: cell-based
Procedure: THP-1 cells were obtained from ATCC (TIB-202) and cultured as a suspension in RPMI-1640 medium supplemented with 2 mM L-glutamine, 1.5 g/L sodium bicarbonate, 4.5 g/L glucose, 10 mM HEPES, 1 mM sodium pyruvate, 0.05% 2-mercaptoethanol and 10% FBS. Cells were grown under 5% CO2/95% air, 100% humidity at 37° C. and subcultured twice weekly at 1:5 (cells were cultured at a density range of 2×10^5 to 2×10^6 cells/mL) and harvested at 1×10^6 cells/mL. THP-1 cells express CCR1 and can be used in CCR1 binding and functional assays.
One of the primary functions of chemokines is their ability to mediate the migration of chemokine receptor-expressing cells, such as white blood cells. To confirm that a compound of interest inhibited not only CCR1 specific binding and signaling (at least as determined by calcium mobilization assays), but also CCR1 mediated migration, a chemotaxis assay was employed. THP-1 myelomonocytic leukemia cells, which resemble monocytes, as wells as freshly isolated monocytes, were used as targets for chemoattraction by CCR1 chemokine ligands (i.e., MIP-1α, CCL15/leukotactin). Cells were place in the top compartment of a microwell migration chamber, 5 μm pore polycarbonate, polyvinylpyrrolidone-coated filters in 96-well chemotaxis chambers (Neuroprobe; Gaithersburg, Md.) using chemotaxis buffer (Hank's balanced salt solution (HBSS) and 1% FBS. CCR1 chemokine ligands (i.e., MIP-1α, CCL15/Leukotactin; R&D Systems; Minneapolis, Minn.) are used to evaluate compound mediated inhibition of CCR1 mediated migration. Other chemokines (i.e., SDF-1α; R&D Systems; Minneapolis, Minn.) are used as specificity controls. The lower chamber was loaded with 29 μl of chemokine (i.e., 0.1 nM CCL15/Leukotactin) and varying amounts of compound; the top chamber contained 100,000 THP-1 or monocyte cells in 20 μl. […] To ascertain a compound of interest's affinity for CCR1 as well as to confirm its ability to inhibit CCR1 mediated cell migration, inhibitory activity was titered over a 1×10^−10 to 1×10^−4 M range of compound concentrations in this chemotaxis assay. In this assay, the amount of compound was varied; while cell number and chemokine agonist concentrations were held constant. After the chemotaxis chambers were incubated 1-2 hours at 37° C., the responding cells in the lower chamber were quantified by labeling with the CyQuant assay (Molecular Probes), a fluorescent dye method that measures nucleic acid content, and by measuring with a Spectrafluor Plus (Tecan). The computer program Prism from GraphPad, Inc. (San Diego, Calif.) was used to calculate IC50 values. IC50 values are those compound concentrations required to inhibit the number of cells responding to a CCR1 agonist by 50%.

Row | IC50 relative to comparator compound | Structure (SMILES)
1 | an order of magnitude lower | COc1cc(N2CCN(C(=O)Cn3nc(-c4ncc[nH]4)c4c(N)ncnc43)[C@@H](C)C2)c(F)cc1Cl [drawing 39]

Same assay, conditions: versus imidazole-substituted pyrido[4,3-b]pyrazoles of related U.S. application Ser. No. 12/124,894

Row | activity in direct comparisons relative to the related compounds tested | Structure (SMILES)
2 | at least an order of magnitude better | COc1cc(N2CCN(C(=O)Cn3nc(-c4ncc[nH]4)c4c(N)ncnc43)CC2)ccc1Cl [Compound 1.001]
3 | at least an order of magnitude better | C[C@H]1CN(c2ccc(Cl)cc2F)CCN1C(=O)Cn1nc(-c2ncc[nH]2)c2c(N)ncnc21 [Compound 1.003]
4 | at least an order of magnitude better | COc1cc(N2CCN(C(=O)Cn3nc(-c4ncc[nH]4)c4c(N)ncnc43)[C@@H](C)C2)ccc1Cl [Compound 1.004]
5 | at least an order of magnitude better | COc1cc(N2CCN(C(=O)Cn3nc(-c4ncc[nH]4)c4c(N)ncnc43)[C@@H](C)C2)c(F)cc1Cl [Compound 1.006]
6 | at least an order of magnitude better | CCOc1cc(N2CCN(C(=O)Cn3nc(-c4ncc[nH]4)c4c(N)ncnc43)[C@@H](C)C2)ccc1Cl [Compound 1.011]

Row | Structure (SMILES) | activity in direct comparisons relative to the related compounds tested
7 | CCOc1cc(N2CCN(C(=O)Cn3nc(-c4ncc[nH]4)c4c(N)ncnc43)CC2)ccc1Cl [Compound 1.007] | at least an order of magnitude better
8 | Nc1ncnc2c1c(-c1ncc[nH]1)nn2CC(=O)N1CCN(c2ccc(Cl)c(OC(F)(F)F)c2)CC1 [Compound 1.010] | at least an order of magnitude better
